{"source": "ChEMBL document CHEMBL1141990", "about": "“Effects of suberoylanilide hydroxamic acid and trichostatin A on induction of cytochrome P450 enzymes and benzo[a]pyrene DNA adduct formation in human cells” (2005)", "assay_type_in_all_cases": "functional", "key": {"MCF7 [1]": {"test_system": "MCF7", "assay": "Average fold change in expression of CYP1B1 after treatment with compound of concentration 1 mM in human MCF-7 cells"}, "MCF7 [2]": {"test_system": "MCF7", "assay": "Average fold change in expression of CYP1A1 after treatment with compound of concentration 0.1 mM in human MCF-7 cells"}, "MCF7 [3]": {"test_system": "MCF7", "assay": "Average fold change in expression of CYP1A1 after treatment with compound of concentration 0.01 mM in human MCF-7 cells"}, "MCF7 [4]": {"test_system": "MCF7", "assay": "Average fold change in expression of CYP1B1 after treatment with compound of concentration 0.01 mM in human MCF-7 cells"}, "MCF7 [5]": {"test_system": "MCF7", "assay": "Average fold change in expression of CYP1B1 after treatment with compound of concentration 0.1 mM in human MCF-7 cells"}, "MCF7 [6]": {"test_system": "MCF7", "assay": "Average fold change in expression of CYP1A1 after treatment with compound of concentration 1 mM in human MCF-7 cells"}, "MCF7 [7]": {"test_system": "MCF7", "assay": "Mean B[a]P DNA binding at 4 uM after co-treatment with compound and TSA (2 uM) in human MCF-7 cells"}, "MCF7 [8]": {"test_system": "MCF7", "assay": "Mean B[a]P DNA binding at 4 uM in human MCF-7 cells"}, "MCF7 [9]": {"test_system": "MCF7", "assay": "Average fold change in expression of CYP1A1 after co-treatment with compound of concentration 1 mM in human MCF-7 cells"}, "MCF7 [10]": {"test_system": "MCF7", "assay": "Average fold change in expression of CYP1B1 at 1 mM after co-treatment with compound and SAHA in human MCF-7 cells"}, "MCF7 [11]": {"test_system": "MCF7", "assay": "Average fold change in expression of CYP1B1 at 1 mM after co-treatment with compound and TSA in human MCF-7 cells"}, "MCF7 [12]": {"test_system": "MCF7", "assay": "Average fold change in expression of CYP1A1 at 1 mM after co-treatment with compound and TSA in human MCF-7 cells"}, "MCF7 [13]": {"test_system": "MCF7", "assay": "Average fold change in expression of CYP1B1 after co-treatment with compound of concentration 1 mM in human MCF-7 cells"}, "MCF7 [14]": {"test_system": "MCF7", "assay": "Mean B[a]P DNA binding at 4 uM after co-treatment with compound and SAHA (2 uM) in human MCF-7 cells"}, "MCF7 [15]": {"test_system": "MCF7", "assay": "Average fold change in expression of CYP1A1 at 1 mM after co-treatment with compound and SAHA in human MCF-7 cells"}}, "data": [{"smiles": "CC(/C=C/C(=O)NO)=C\\[C@@H](C)C(=O)c1ccc(N(C)C)cc1", "note": "[TRICHOSTATIN]", "values": [{"measurement": "Fold change", "setting": "MCF7 [1]", "value": 0.17}, {"measurement": "Fold change", "setting": "MCF7 [2]", "value": 0.81}, {"measurement": "Fold change", "setting": "MCF7 [3]", "value": 0.77}, {"measurement": "Fold change", "setting": "MCF7 [4]", "value": 1.29}, {"measurement": "Fold change", "setting": "MCF7 [5]", "value": 1.57}, {"measurement": "Fold change", "setting": "MCF7 [6]", "value": 3.1}]}, {"smiles": "O=C(CCCCCCC(=O)Nc1ccccc1C(=O)NO)Nc1ccccc1", "values": [{"measurement": "Fold change", "setting": "MCF7 [1]", "value": 1.58}, {"measurement": "Fold change", "setting": "MCF7 [2]", "value": 2.86}, {"measurement": "Fold change", "setting": "MCF7 [3]", "value": 0.77}, {"measurement": "Fold change", "setting": "MCF7 [4]", "value": 1.1}, {"measurement": "Fold change", "setting": "MCF7 [5]", "value": 1.62}, {"measurement": "Fold change", "setting": "MCF7 [6]", "value": 0.98}]}, {"smiles": "c1ccc2c(c1)cc1ccc3cccc4ccc2c1c34", "note": "[BENZO[DEF]CHRYSENE]", "values": [{"measurement": "Fold change", "setting": "MCF7 [1]", "value": 4.35}, {"measurement": "Activity", "setting": "MCF7 [7]", "value": 54.15, "unit": "pmol adducts/mg DNA"}, {"measurement": "Fold change", "setting": "MCF7 [2]", "value": 3.69}, {"measurement": "Activity", "setting": "MCF7 [8]", "value": 34.75, "unit": "pmol adducts/mg DNA"}, {"measurement": "Fold change", "setting": "MCF7 [9]", "value": 25.55}, {"measurement": "Fold change", "setting": "MCF7 [3]", "value": 1.85}, {"measurement": "Fold change", "setting": "MCF7 [10]", "value": 2.4}, {"measurement": "Fold change", "setting": "MCF7 [11]", "value": 1.02}, {"measurement": "Fold change", "setting": "MCF7 [12]", "value": 8.77}, {"measurement": "Fold change", "setting": "MCF7 [13]", "value": 4.39}, {"measurement": "Fold change", "setting": "MCF7 [4]", "value": 1.36}, {"measurement": "Activity", "setting": "MCF7 [14]", "value": 52.18, "unit": "pmol adducts/mg DNA"}, {"measurement": "Fold change", "setting": "MCF7 [5]", "value": 1.7}, {"measurement": "Fold change", "setting": "MCF7 [15]", "value": 22.92}, {"measurement": "Fold change", "setting": "MCF7 [6]", "value": 25.24}]}]}
